Results reported in paper PMC10349806 (Nature Communications, 2023).
Values joined by “and” are separate entries in the source; they are usually repeats but may differ in a detail not shown here. Equal values may be shown once.

Experiments:
PfCRT^Dd2 = PfCRT^Dd2 (Plasmodium falciparum, UniProt Q9N623, A220S/I356T/K76T/M74I/N326S/N75E/Q271E/R371I); experiment: Drug uptake assay, X. laevis oocytes expressing PfCRT^Dd2; type: cell-based; settings: for PfCRTDd2 transport activity pH 6.0: 50 µM external drug, 1 h, independent samples (means in Fig 4c)
Chain of PfCRT^Dd2 (Q9N623 whole entry A220S/I356T/K76T/M74I/N326S/N75E/Q271E/R371I): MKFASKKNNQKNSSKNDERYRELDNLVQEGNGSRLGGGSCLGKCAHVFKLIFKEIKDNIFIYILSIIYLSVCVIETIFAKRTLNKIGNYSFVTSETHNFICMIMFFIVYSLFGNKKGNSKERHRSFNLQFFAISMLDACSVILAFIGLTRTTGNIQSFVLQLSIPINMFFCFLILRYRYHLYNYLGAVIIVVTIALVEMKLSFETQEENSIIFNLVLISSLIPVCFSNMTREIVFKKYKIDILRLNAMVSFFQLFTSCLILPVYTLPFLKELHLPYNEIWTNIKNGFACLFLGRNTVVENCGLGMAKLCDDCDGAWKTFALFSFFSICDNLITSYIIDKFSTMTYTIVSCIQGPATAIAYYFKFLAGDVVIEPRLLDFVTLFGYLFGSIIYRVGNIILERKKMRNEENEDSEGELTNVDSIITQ
Procedure: (§1) Oocytes were obtained as described previously. Briefly, adult (>2 years old) female X. laevis frogs (NASCO) were anesthetized in a cooled solution of ethyl 3-amino benzoate methanesulfonate (0.1%, w/v), followed by a surgical removal of parts of the ovary. The ovary lobes were carefully dissected and small pieces of oocytes were incubated in Ca^2+-free ND96 buffer (96 mM NaCl, 2 mM KCl, 1 mM MgCl2 buffered with 5 mM HEPES/NaOH, pH 7.5) supplemented with collagenase D (0.1%, w/v; Roche), BSA (0.5%, w/v), and 9 mm Na2HPO4 at 18 °C for 14-16 h while gentle shaking. After incubation, the oocytes were carefully washed several times with ND96 buffer (96 mM NaCl, 2 mM KCl, 1.8 mM CaCl2, 1 mM MgCl2 buffered with 5 mM HEPES/NaOH, pH 7.5) supplemented with 100 mg l^−1 gentamycin). Defolliculated and healthy-looking stage V-VI oocytes were manually selected for RNA microinjection. The RNA was generated as following: The codon-optimized sequences of PfCRT variants were cloned into the pSP64T expression vector. After vector linearization using the restriction endonucleases BamHI or SalI (New England Biolabs), transcription was performed using the in vitro SP6 mMessage mMachine Kit (Ambion)[34]. The obtained RNA was kept at −80 °C and diluted with nuclease-free water to a concentration of 0.6 μg μl^−1. Precision-bore glass capillary tubes (3.5-inch glass capillaries; Drummond Scientific Co.) were pulled on a vertical puller (P-87 Flaming/Brown micropipette puller, Sutter Instrument Co.), graduated, and placed on a microinjector (Nanoject II Auto-Nanoliter Injector, Drummond Scientific Co.). 50 nl of nuclease-free water alone (control oocytes) or 50 nl of 0.6 μg μl^−1 RNA were injected under stereomicroscopic control. Injected oocytes were incubated for 46–72 h at 18 °C with twice-daily buffer changes before usage in experiments.
Drug uptake assays were performed as described previously[21],[22],[24],[34]. […] The direction of radio-labeled drug transport is here from the mostly acidic extracellular solution (pH 4.5 or 6.0, as indicated) into the oocyte cytosol (pH ∼ 7.2), which corresponds to the efflux of drug from the acidic digestive vacuole (pH 5.2) into the parasite cytoplasm (pH 7.2). The topology of PfCRT in the oolemma is such that both the N- and C-terminus face the extracellular milieu[3],[22]. In the parasite, the N- and C-terminus face the lumen of the digestive vacuole. […] For determination of the amount of drug uptake for each oocyte, the reaction medium was removed and the oocytes were washed three times with 2 ml of ice-cold ND96 buffer. Each oocyte was individually transferred to a scintillation vial containing 5% sodium dodecyl sulfate (200 μl) for lysis. […] Oocytes that were injected with water instead of RNA were analyzed in parallel, representing the uptake of a drug by diffusion and/or endogenous permeation pathways. The resulting value represents the “background“ level of drug accumulation in oocytes (in-depth discussion in[22]). The specific PfCRT-mediated uptake was determined by subtracting the corresponding background value measured in water-injected oocytes from that of PfCRT-expressing oocytes. In all cases, at least three separate experiments were performed on oocytes from different frogs (biological replicate), and for each condition in an experiment, measurements were made from 10 oocytes per treatment. For pH 5.5, 6.0, and 6.5, ND96 was buffered with 5 mM MES/Tris base. For pH 4.5, 5 mM Homo-Pipes was used as a buffer and 5 mM HEPES for uptake at pH 7.0.

PfCRT variant E207A = experiment: Drug uptake assay, oocytes expressing E207A; type: cell-based, Plasmodium falciparum; settings: for E207A transport activity pH 4.5 / E207A transport activity pH 6.0: 50 µM external drug, 1 h
Procedure: Site-directed mutagenesis of PfCRT^Dd2 was performed as described using the megaprimer method with overlap extension[21],[54]. The primer pairs used are listed in Supplementary Table 6. Please note that a codon-optimized and oocyte-adapted version of PfCRT^Dd2 was used[22] (Supplementary Fig. 16). The resulting DNA fragment was cloned into the SP64T expression vector and verified by sequencing.
as §1
Drug uptake assays were performed as described previously[21],[22],[24],[34]. […] The direction of radio-labeled drug transport is here from the mostly acidic extracellular solution (pH 4.5 or 6.0, as indicated) into the oocyte cytosol (pH ∼ 7.2), which corresponds to the efflux of drug from the acidic digestive vacuole (pH 5.2) into the parasite cytoplasm (pH 7.2). The topology of PfCRT in the oolemma is such that both the N- and C-terminus face the extracellular milieu[3],[22]. In the parasite, the N- and C-terminus face the lumen of the digestive vacuole. […] For determination of the amount of drug uptake for each oocyte, the reaction medium was removed and the oocytes were washed three times with 2 ml of ice-cold ND96 buffer. Each oocyte was individually transferred to a scintillation vial containing 5% sodium dodecyl sulfate (200 μl) for lysis. […] Oocytes that were injected with water instead of RNA were analyzed in parallel, representing the uptake of a drug by diffusion and/or endogenous permeation pathways. The resulting value represents the “background“ level of drug accumulation in oocytes (in-depth discussion in[22]). The specific PfCRT-mediated uptake was determined by subtracting the corresponding background value measured in water-injected oocytes from that of PfCRT-expressing oocytes. In all cases, at least three separate experiments were performed on oocytes from different frogs (biological replicate), and for each condition in an experiment, measurements were made from 10 oocytes per treatment. For pH 5.5, 6.0, and 6.5, ND96 was buffered with 5 mM MES/Tris base.

[1] = test system: CCN(CC)CCCC(C)Nc1ccnc2cc(Cl)ccc12; experiment: Drug uptake assay, X. laevis oocytes expressing PfCRT^Dd2; type: cell-based, Plasmodium falciparum; settings: 18.0 °C
Procedure: Oocytes were obtained as described previously[24]. Briefly, adult (>2 years old) female X. laevis frogs (NASCO) were anesthetized in a cooled solution of ethyl 3-amino benzoate methanesulfonate (0.1%, w/v), followed by a surgical removal of parts of the ovary. The ovary lobes were carefully dissected and small pieces of oocytes were incubated in Ca^2+-free ND96 buffer (96 mM NaCl, 2 mM KCl, 1 mM MgCl2 buffered with 5 mM HEPES/NaOH, pH 7.5) supplemented with collagenase D (0.1%, w/v; Roche), BSA (0.5%, w/v), and 9 mm Na2HPO4 at 18 °C for 14-16 h while gentle shaking. After incubation, the oocytes were carefully washed several times with ND96 buffer (96 mM NaCl, 2 mM KCl, 1.8 mM CaCl2, 1 mM MgCl2 buffered with 5 mM HEPES/NaOH, pH 7.5) supplemented with 100 mg l^−1 gentamycin). Defolliculated and healthy-looking stage V-VI oocytes were manually selected for RNA microinjection. […]
Drug uptake assays were performed as described previously[21],[22],[24],[34]. […] Oocytes that were injected with water instead of RNA were analyzed in parallel, representing the uptake of a drug by diffusion and/or endogenous permeation pathways. […] The specific PfCRT-mediated uptake was determined by subtracting the corresponding background value measured in water-injected oocytes from that of PfCRT-expressing oocytes. […]

[2] = CQ transport in the presence of verapamil, independent samples

Q: Which “PfCRTDd2 transport activity pH 6.0” value (PfCRT^Dd2) does the source give for `NC12CC3CC(CC(C3)C1)C2` [AMA, amantadine] here?
A: Its value is 3.96 pmol oocyte-1 h-1 and 5.23 pmol oocyte-1 h-1 and 3.48 pmol oocyte-1 h-1.

Q: How did the “PfCRTDd2 transport activity pH 6.0” value (PfCRT^Dd2) turn out when `Clc1ccc2c(N3CCN(CCCN4CCN(c5ccnc6cc(Cl)ccc56)CC4)CC3)ccnc2c1` [PPQ, piperaquine] was run?
A: Its value is 28.14 pmol oocyte-1 h-1 and 21.87 pmol oocyte-1 h-1 and 30.01 pmol oocyte-1 h-1 and 33.33 pmol oocyte-1 h-1.

Q: What about the “E207A transport activity pH 4.5” value (PfCRT variant E207A; independent samples) of the same compound?
A: The value was 9.66 pmol oocyte-1 h-1 and 9.12 pmol oocyte-1 h-1 and 9.57 pmol oocyte-1 h-1 and 5.62 pmol oocyte-1 h-1.

Q: What about the “E207A transport activity pH 6.0” value (PfCRT variant E207A; independent samples) of the same compound?
A: The value was 8.93 pmol oocyte-1 h-1 and 12.01 pmol oocyte-1 h-1 and 12.48 pmol oocyte-1 h-1 and 12.86 pmol oocyte-1 h-1.

Q: What does the source list for `C=C[C@H]1C[N@@]2CC[C@H]1C[C@@H]2[C@@H](O)c1ccnc2ccc(OC)cc12` [QD, quinidine]?
A: PfCRTDd2 transport activity pH 6.0 (PfCRT^Dd2): 4.23 pmol oocyte-1 h-1 and 3.26 pmol oocyte-1 h-1 and 4.00 pmol oocyte-1 h-1 and 4.74 pmol oocyte-1 h-1 and 4.12 pmol oocyte-1 h-1 and 4.59 pmol oocyte-1 h-1; E207A transport activity pH 4.5 (PfCRT variant E207A; independent samples): 1.55 pmol oocyte-1 h-1 and 1.47 pmol oocyte-1 h-1 and 1.04 pmol oocyte-1 h-1 and 1.61 pmol oocyte-1 h-1; E207A transport activity pH 6.0 (PfCRT variant E207A; independent samples): 2.30 pmol oocyte-1 h-1 and 2.18 pmol oocyte-1 h-1 and 1.61 pmol oocyte-1 h-1 and 1.77 pmol oocyte-1 h-1 and 2.20 pmol oocyte-1 h-1

Q: How did the “PfCRTDd2 transport activity pH 6.0” value (PfCRT^Dd2) turn out when `C=C[C@H]1C[N@@]2CC[C@H]1C[C@H]2[C@H](O)c1ccnc2ccc(OC)cc12` [QN, quinine] was run?
A: Its value is 6.11 pmol oocyte-1 h-1 and 5.59 pmol oocyte-1 h-1 and 5.35 pmol oocyte-1 h-1 and 4.57 pmol oocyte-1 h-1.

Q: And the “E207A transport activity pH 4.5” value (PfCRT variant E207A; independent samples)?
A: Its value is 1.81 pmol oocyte-1 h-1 and 1.79 pmol oocyte-1 h-1 and 2.22 pmol oocyte-1 h-1 and 1.30 pmol oocyte-1 h-1 and 1.76 pmol oocyte-1 h-1.

Q: What about the “E207A transport activity pH 6.0” value (PfCRT variant E207A; independent samples) of the same compound?
A: Its value is 2.22 pmol oocyte-1 h-1 and 1.72 pmol oocyte-1 h-1 and 2.41 pmol oocyte-1 h-1 and 2.60 pmol oocyte-1 h-1.

Q: How did the “PfCRTDd2 transport activity pH 6.0” value (PfCRT^Dd2) turn out when `CC[C@]1(O)C[C@@H]2CN(CCc3c([nH]c4ccccc34)[C@@](C(=O)OC)(c3cc4c(cc3OC)N(C)[C@H]3[C@@](O)(C(=O)OC)[C@H](OC(C)=O)[C@]5(CC)C=CCN6CC[C@]43[C@@H]65)C2)C1` [VNB, vinblastine] was run?
A: The value was “n.u”.

Q: What about the “transport of the drug by PfCRT^Dd2” value (PfCRT^Dd2; pH 6.0, in words) of the same compound?
A: The value was “Neither PfCRT^Dd2 nor E207A acted on”.

Q: And the “E207A transport activity pH 6.0” value (PfCRT variant E207A; independent samples)?
A: The value was “n.u”.

Q: And the “transport of the drug by E207A” value (PfCRT variant E207A; pH 6.0, in words)?
A: Its value is “Neither PfCRT^Dd2 nor E207A acted on”.

Q: What does the source list for `CC[C@]1(O)C[C@H]2CN(CCc3c([nH]c4ccccc34)[C@@](C(=O)OC)(c3cc4c(cc3OC)N(C=O)[C@H]3[C@@](O)(C(=O)OC)[C@H](OC(C)=O)[C@]5(CC)C=CCN6CC[C@]43[C@@H]65)C2)C1` [VNC, vincristine]?
A: PfCRTDd2 transport activity pH 6.0 (PfCRT^Dd2): n.u.; transport of the drug by PfCRT^Dd2 (PfCRT^Dd2; pH 6.0, in words): Neither PfCRT^Dd2 nor E207A acted on; E207A transport activity pH 6.0 (PfCRT variant E207A; independent samples): n.u.; transport of the drug by E207A (PfCRT variant E207A; pH 6.0, in words): Neither PfCRT^Dd2 nor E207A acted on

Q: For `COc1ccc(CCN(C)CCCC(C#N)(c2ccc(OC)c(OC)c2)C(C)C)cc1OC` (stereo not drawn) [VP, verapamil], which “PfCRTDd2 CQ + VP transport activity pH 6.0” value (PfCRT^Dd2; [2]) is on record?
A: Its value is 1.45 pmol oocyte-1 h-1 and 1.56 pmol oocyte-1 h-1 and 1.71 pmol oocyte-1 h-1 and 1.84 pmol oocyte-1 h-1.

Q: What about the “effect on CQ transport by PfCRT^Dd2” value (PfCRT^Dd2; pH 6.0, in words) of the same compound?
A: Its value is “blocked CQ transport”.

Q: What about the “E207A CQ + VP transport activity pH 6.0” value (PfCRT variant E207A; [2]) of the same compound?
A: The value was 0.66 pmol oocyte-1 h-1 and 0.74 pmol oocyte-1 h-1 and 0.45 pmol oocyte-1 h-1.

Q: What about the “effect on CQ transport by E207A” value (PfCRT variant E207A; pH 6.0, in words) of the same compound?
A: The value was “blocked CQ transport”.

Q: Which Km ([1]; other: PfCRT^Dd2, pH 4.5, pH 4.5) does the source give for “PfCRT^Dd2 (Plasmodium falciparum; A220S/I356T/K76T/M74I/N326S/N75E/Q271E/R371I)” here?
A: Its Km is 200 ± 60 µM.

Q: What about the Km ([1]; other: PfCRT^Dd2, pH 6.0, pH 6.0) of the same compound?
A: The Km was 270 ± 50 µM.
